Test results: patent US7132279B2, “Epidermal melanocyte culture formulations” (New York Eye & Ear Infirmary, priority 2003, dated 2006)
Where no end group is shown, it is not given here.

Columns and labels:
epidermal melanocytes [1] = assay: Migration of cultured epidermal melanocytes in Boyden chambers; assay type: cell-based, human; conditions: for Migration of epidermal melanocytes: cAMP deleted medium
Description: Cell migration experiments were performed on early passages of cells in 48-well Boyden chambers (Neuroprobe, Bethesda, Md.). Cultured epidermal melanocytes were dissociated with 0.05% trypsin-EDTA (Sigma, St. Louis, Mo.) at 37° C. for 2–3 minutes, neutralized by culture medium with 10% FBS. The cells were centrifuged and resuspended in culture medium. The lower half of the Boyden chambers contained culture medium with or without tested substances. An 8 μm pore cellulose nitrate filter separated the upper and lower wells. Epidermal melanocytes (3×10^4) suspended in 50 μl culture medium (with or without tested substances) were added to the upper wells. The chamber was incubated at 37° C. in a humidified atmosphere at 95% air and 5% CO2. After 6 hours, the filter was removed from the chamber, fixed in 95% ethanol for 5 minutes, and stained with hematoxylin for 1 minute. The number of cells migrating through the filter and attached to the lower surface of the filter was counted (Doerr et al., 1996, J Biol Chem 271:2443; Verdoorn et al., 1986, Arch Ophtalmol 104:1216). Triplicate samples were assayed in all experiments.

epidermal melanocytes [2] = assay: Melanin production of cultured epidermal melanocytes (optical density at 475 nm); assay type: cell-based, human; conditions: 6 days
Description: (§1) Three deleted media were used for the study, (i) growth factor-deleted medium, (ii) cAMP-elevating agent deleted medium and (iii) serum-depleted medium. Various testing substances were added to the three deleted media above. These substances include bFGF, HGF, epinephrine and α-MSH. The deleted medium without the test substance was the negative control and the complete medium is the positive control.
Melanocytes cultured as described above were detached by trypsin-EDTA solution and counted in a hemocytometer. The cell suspensions were centrifuged and the pellet was resuspended in 1N NaOH. Melanin concentration was determined by measurement of optical density at 475 nm by a spectrophotometer and compared with a standard curve obtained using synthetic melanin (Sigma, St. Louis, Mo.). Melanin content is expressed as μg/culture or ng/cell (Hu et al., 1995, Invest. Ophthalmol Vis Sci 36:931).

epidermal melanocytes [3] = assay: Cell growth of cultured epidermal melanocytes by cell counting (6 days); assay type: cell-based, human
Description: as §1
Human skin specimens containing epidermis were obtained from a donor. The specimens were incubated in 0.25% trypsin solution (GIBCO, Carlsbad, Calif.) for 15 minutes at 37° C., followed by a 10 minute incubation with 0.2% EDTA (Sigma, St. Louis, Mo.) solution. The epidermal sheets were gently treated with forceps to dissociate the epidermal cells and to yield an epidermal cell suspension. The epidermal cells were centrifuged and seeded into a 25 cm^2 flask with the culture medium. The flask was incubated at 37° C. in an atmosphere of 95% humidified air and 5% CO2. Geneticin (Sigma, St. Louis, Mo.) was added (100 μg/ml) for three days to eliminate keratinocytes and fibroblasts. The medium was changed every three days. The melanocytes typically reached confluence in two weeks. After reaching confluence, the melanocytes were detached using trypsin-EDTA solution, centrifuged, diluted and seeded for subculture. At the time of transplantation, the melanocytes were detached using trypsin-EDTA solution, centrifuged and resuspended with F12 medium.
Cell counting was used to evaluate the effect of the test substance on growth of epidermal melanocytes. Epidermal melanocytes were plated in 6-well plates at a density of 1×10^5 cells per well with medium. After 24 hours, medium was replaced by the testing media. The media was changed every three days. After six days, the cells were detached with trypsin-EDTA solution and neutralized with culture medium with 10% serum. The cell suspension was centrifuged and the pellet was resuspended in 1 ml F12 medium, 20 μl of the cell suspension was collected into the tip of a Pasteur pipette and transferred to a hemocytometer. The hemocytometer was observed under an optical microscope. Cells falling in four […] areas bounded by three parallel lines were counted. The cell number was obtained using Formula I shown below (Freshney, 1987, Culture of Animal Cells. Wiley-Liss, Inc., New York, 2nd edition). The average of four counts was calculated. Triplicate samples were assayed in all experiments. c=n×10^4 FORMULA I • where c=concentration (cells/ml), n=number of cells counted.

ocular melanocytes = conditions: Hu, 2000; cited from earlier work
epidermal melanocytes [4] = conditions: Halaban et al., 1988; cholera toxin in the media; cited from earlier work
[5] = cAMP-elevating agents-deleted medium, epinephrine 1-3,000 ng/ml, α-MSH 1-1,000 ng/ml
[6] = growth factor-deleted medium, 1-1,000 ng/ml

Compound | Migration of epidermal melanocytes (epidermal melanocytes [1]) | Melanin content/well versus control (epidermal melanocytes [2]; [5]) | Cell growth (cell number) versus control (epidermal melanocytes [3]; [5]) | Growth of cultured ocular melanocytes (ocular melanocytes) | Migration cell number versus control (epidermal melanocytes [1]; 1-1,000 ng/ml, 6 hours) | Melanin content/well versus control (epidermal melanocytes [2]; [6]) | Cell growth (cell number) versus control (epidermal melanocytes [3]; [6]) | Growth of cultured epidermal melanocytes (epidermal melanocytes [4])
CNC[C@H](O)c1ccc(O)c(O)c1 [epinephrine, (L)-Epinephrine bitartrate] | stimulated the growth, melanogenesis and migration | significantly greater than that of the controls | dose dependent stimulation of cell growth |  |  |  |  | 
HGF: hepatocyte growth factor, pleiotrophic growth factor (PeproTech) |  |  |  | stimulates growth of cultured ocular melanocytes | dose dependent stimulation of migration | significantly greater than that of the controls | dose dependent stimulation of cell growth | 
bFGF: basic fibroblast growth factor (PeproTech) |  |  |  |  |  | did not show any significant influence on melanin content | dose dependent stimulation of cell growth | 
α-MSH: tridecapeptide with a sequence identical to the first 13 amino acids of adrenocorticotropin (ACTH) (SYSMEHFRWGKPV; ends and bridges not checked; UniProt P01189 138-150, looked up) | stimulated the growth, melanogenesis and migration | significantly greater than that of the controls | dose dependent stimulation of cell growth |  |  |  |  | failed to stimulate growth
